Experimental data reported in BindingDB's records for PubMed 10336515 (Banyu Pharmaceutical, 1999).

Experiments:
Endothelin-1 receptor = target: T1, Endothelin-1 receptor (Homo sapiens, UniProt P25101)
T1 sequence (P25101 whole entry): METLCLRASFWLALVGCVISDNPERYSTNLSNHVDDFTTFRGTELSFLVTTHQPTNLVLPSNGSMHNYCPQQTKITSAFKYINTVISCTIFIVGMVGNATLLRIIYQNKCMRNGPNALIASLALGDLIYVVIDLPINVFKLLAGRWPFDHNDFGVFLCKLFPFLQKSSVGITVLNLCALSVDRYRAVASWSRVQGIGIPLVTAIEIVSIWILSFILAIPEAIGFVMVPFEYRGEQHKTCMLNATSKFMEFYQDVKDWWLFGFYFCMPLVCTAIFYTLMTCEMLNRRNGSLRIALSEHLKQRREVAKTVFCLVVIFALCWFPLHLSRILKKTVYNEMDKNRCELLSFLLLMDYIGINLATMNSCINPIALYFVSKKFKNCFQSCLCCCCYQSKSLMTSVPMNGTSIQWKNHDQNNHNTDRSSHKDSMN

[1] = target: T2, Endothelin receptor type B (Homo sapiens, UniProt P24530)
T2 sequence (P24530 whole entry): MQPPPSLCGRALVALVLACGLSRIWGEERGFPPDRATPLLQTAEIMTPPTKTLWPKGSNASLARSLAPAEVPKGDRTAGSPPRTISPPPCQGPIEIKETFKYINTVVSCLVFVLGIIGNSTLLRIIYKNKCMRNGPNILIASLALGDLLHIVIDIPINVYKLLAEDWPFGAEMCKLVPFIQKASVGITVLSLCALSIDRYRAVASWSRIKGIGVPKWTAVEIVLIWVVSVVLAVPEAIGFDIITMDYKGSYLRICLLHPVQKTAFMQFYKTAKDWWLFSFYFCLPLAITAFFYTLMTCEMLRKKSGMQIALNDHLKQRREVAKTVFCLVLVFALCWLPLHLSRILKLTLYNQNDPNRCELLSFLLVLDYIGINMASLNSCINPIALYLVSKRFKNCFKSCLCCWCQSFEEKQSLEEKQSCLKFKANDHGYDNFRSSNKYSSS

Ki (Endothelin-1 receptor): 30 pM | Ki [1]: 100 pM
SMILES: CCCCc1ccc2c(n1)[C@@H](c1ccc(OC)cc1C[C@H](C)C(=O)O)[C@H](C(=O)O)[C@H]2c1ccc2c(c1)OCO2 [J-104132]
